“Also recorded” adds a separate entry of the source.
Legend:
[1] = tested on: HEK293; assay: In vitro cytotoxicity experiment (MTT, cell survival); type: cell-based; settings: HEK293, in vitro test, FIG. 3
Procedure: Example 35: In Vitro Cytotoxicity Experiment the Experimental Cell Line is HEK293
Cells are cultured in a 96-well plate at a cell concentration of 5000/well. After 24 hours of cell culture, the drug treatment is performed and the experiment is carried out on two groups: the control group is added with DMSO with the same concentration as that for the experimental group; in the experimental group, each compound is tested at three doses of low, medium and high doses (100 μM; 500 μM; 1000 μM), and five parallels are tested at each dose; in the blank group, a complete medium is added with a compound to be tested with the same concentration as that for the experimental group. Constant temperature incubation is carried out for 24 h in a CO2 incubator, MTT with a final concentration of 0.5 mg/mL is then added; 4 hours later, 200 μL of DMSO solution is added, and the absorbance is measured at 490 nm. The cell survival is calculated according to the absorbance; Survival %=(Average concentration−Blank concentration)/(Average control concentration−Blank concentration)*100%.
Reference is made to FIG. 3 which illustrates an in vitro cytotoxicity test chart of a novel stilbene derivative according to an example of embodiments of the present invention.

[2] = tested on: neurogenesis in rat hippocampus; assay: Detection of neurogenesis in rat hippocampus by BrdU labeling (DAB immunohistochemistry); type: in vivo; settings: under the test conditions of the embodiments, same dose
Text: Example 36: Detection of Neurogenesis in Rat Hippocampus by BrdU (5-Bromo-2-deoxy Uridine, 5-bromodeoxyuridine) Labeling
Experimental animals: 10-week-old SD male rats having a body weight of about 300 g are purchased. The rats are used in experiments one week after being adapted to the environment in an animal room. Experimental groups: control group, drug group. 2-3 rats per group. Experimental reagent: injection oil is used to dissolve a compound to be tested. Rates in the control group are injected with the same dose of dissolving oil.
Test method: intraperitoneal injection is carried out 28 days at the injection dose of 0.5 ml-1 ml each time. Dose: 4 mg/Kg.
1) marker injection: BrdU (dissolved in sterile saline solution at a concentration of 10 mg/mL) solution is injected intraperitoneally into rats. (For rats with different body weights, the injection dose of BrdU is 50 mg·Kg^−1, injection is carried out twice every 2 hour; the intraperitoneal injection 24 hours before anesthesia ends.
2) Anesthesia: Anesthesia is performed by intraperitoneal injection of sodium pentobarbital solution into rats. (For rats with different body weights, the injection dose of sodium pentobarbital is usually 70 mg·Kg^−1.)
3) Cardiac perfusion: cardiac perfusion with normal saline is performed according to a general method.
4) Taking of brain tissues: The heads of the rats are separated from the bodies with surgical forceps and scissors, and then the muscles and membrane tissues at the top of the skulls are removed and brains are then gently peeled from the skulls. The separated brains are soaked in 4% paraformaldehyde for 24-48 hours.
5) Dehydration of brain tissues: the fixed tissues are soaked with a 20% sucrose PBS solution for more than 72 hours, and then the brain tissues are soaked with a 30% sucrose PBS solution for more than 72 hours.
6) Frozen section: the brain tissues are cut into […] thick sections by a general coronal section procedure.
7) DAB immunohistochemistry step: DNA denaturation is carried out and the sections are transferred to a 24-well plate (pH 7.4) perfused with 0.1 M PBS. The brain sections are incubated with 1% H2O2 for 30 minutes to remove […]; the sections are then treated with a 2M HCl solution for 30 minutes at room temperature to denature them. After completion of the denaturation, the brain sections are immersed in a 0.1 M sodium borate (pH 8.5) solution for 5 minutes and rinsed twice; the brain sections are incubated in 0.5% PBST for 1 hour at room temperature, and then are blocked for 1 hour with a serum blocking solution on a shaker at room temperature, and the serum blocking solution is from the same source as a secondary antibody; the samples are treated on the shaker with a BrdU primary antibody overnight at 4° C., and the BrdU primary antibody is diluted with the blocking solution; the samples are incubated with the biotinylated secondary antibody IgG for 2 hours at room temperature; a C (ABC kit) solution is incubated at room temperature for 2 hours; finally, after 3 to 5 minutes of color development by the DAB kit, the samples are mounted by using a PVP mounting medium and then dried, and finally the experimental results are detected under a microscope.
The dose-effect relationships of different compounds is further tested according to the method of Example 36, and the compounds include WS-54 (E-4-isobutyrylamino-3′,4′-methylenedioxy-stilbene), WS-69 (E-4-Methylsulfonamino-3′,4′-methylenedioxy-stilbene), WS-70 (E-4-Benzamino-3′,4′-methylenedioxy-stilbene), and WS-74 (E-4-Cyclopropylformamino-3′,4′-methylenedioxy-stilbene).

[3] = tested on: neurogenesis in rat hippocampus; assay: BrdU and NeuN fluorescence double staining; type: in vivo
Procedure: Example 37: Experimental Procedure of BrdU and NeuN Fluorescence Double Staining
The samples are obtained in the same manner as an Example 34. First, the DNA denaturation is performed, and the sections are transferred to a HCl solution perfused with 2 N, and treated at 37° C. for 60 minutes to be denatured. After completion of the denaturation, the brain sections are immersed in a 0.1 M sodium borate (pH 8.5) solution for 5 minutes and rinsed twice; the brain sections are then blocked for 1 hour with a serum blocking solution on a shaker at room temperature, and the serum blocking solution is from the same source as a secondary antibody; the samples are treated on the shaker with BrdU (1:500, Millipore) and NeuN (1:500, Abcam) primary antibodies overnight at 4° C., and the primary antibodies are diluted with the blocking solution; the samples are incubated with fluorescent secondary antibodies goat anti-mouse and goat anti-rabbits at room temperature (1:50, Zhongshanjinqiao) for 2 hours at room temperature in a dark place; the samples are mounted by using a fluorescent anti-quenching PVP mounting medium and then dried, and finally the experimental results are detected under a microscope. Control group and drug group (low dose L, 2 mg/Kg; medium dose M, 4 mg/Kg).

CC(=O)Nc1ccc(/C=C/c2ccc3c(c2)OCO3)cc1 [WS-6, E-4-acetylamino-3′,4′-methylenedioxy-stilbene]
neuronal cytotoxicity / neurotoxicity (in words) [1]: further reduced in neurotoxicity as compared with WS-61; also recorded: greatly reduced
neurogenesis activity (in words) [2]: better neurogenesis activity
dose relationship of NeuN+BrdU+ spots ([3]; 4 mg/Kg over 2 mg/Kg): can further enhance neurogenesis at the dose of 4 mg/Kg over the dose of 2 mg/Kg
BrdU and NeuN double staining: neurogenesis ([3]; low dose 2 mg/Kg and medium dose 4 mg/Kg, FIG. 9): can promote neurogenesis

Source: patent US10829466B2, “Stilbene derivative and preparation method thereof” (BEIJING INSTITUTE OF TECHNOLOGY, priority 2015, dated 2020)
